# Experimental data as given in patent US9958439B2, “Carbohydrate detection” (RICHTER LIFE SCIENCE DEVELOPMENT AB, priority 2012, dated 2018).
# Read-outs that look alike come from different tables or passages of the source.
# How the values were obtained:
# [1] = for RFU change (Correlation analysis): probe-specific excitation λ, emission 545 nm
# Protocol: (§1) 3 μM of each probe was applied to serial two fold dilutions of the carbohydrate of which the concentration shown here are 5 mg/ml (_.), 2.5 mg/ml (. . . ) 1.25 mg/ml (__) and 0 mg/ml (_). The excitation spectrum of the probe was analyzed for wavelengths 300-500 nm with emission read at 545 nm.
# (§2) 3 μM of each probe was applied to serial two fold dilutions of the carbohydrate. Respective probes were excited at wavelengths unique to each probe (specified in figure), and emission was read at 545 nm.
# (§3) Serial dilutions of carbohydrate suspensions were prepared in dH2O. Concentrations ranging from 10 to 0.039 mg/ml was used for β-1,3-glucan, cellulose and chitin, whereas 5 to 0.019 mg/ml was used for sodium alginate, glucose, amylose, glycogen, cellulobiose, heparin, chondroitin sulfate A. 3 μM of each LCO probe was added to 1 ml aliquots of each concentration of carbohydrate, after which 100 μl was dispensed in triplicates into 96 well plates. Excitation spectra were collected by exciting the sample from 300 to 500 nm and detecting emission at 545 nm. Detection of carbohydrate is concluded when there is a reproducible change in λmax and/or RFU intensity with reference to the negative control. Data from three concentrations, as well as the negative control are shown for each carbohydrate as specified in respective figure.
# (§4) The excitation wavelength (emission detected at 545 nm) selected for each LCO is either (1) the λmax, or (2) the excitation wavelength which suffers the lowest background. A linear regression analysis is performed to determine the relationship between the carbohydrate concentration and RFU.
# [2] = Protocol: as §1
# 3 μM of each probe was applied to serial two fold dilutions of the carbohydrate. Respective probes were excited at wavelengths unique to each probe (specified in figure), and emission was read at 545 nm. […] The mean increase in signal (_) with [Glucose] and the fitted regression line (__) is shown.
# as §3, §4
# [3] = for RFU change (Correlation analysis) / RFU change (Signal deviation with increasing [Carbohydrate]) / λmax change: 3 μM probe; for RFU change (Correlation analysis): probe-specific excitation λ, emission 545 nm; for RFU change (Signal deviation with increasing [Carbohydrate]) / λmax change: spectral analysis, Excitation 300-500, Emission 545; for carbohydrate can be detected and/or differentiated by the LCO: conclusion from change in signal magnitude and/or shift in λmax; for Gradient Parameters (gradient of regression line) / Linear relationship / Quality of Gradient: linear regression
# Protocol: (§5) The excitation spectrum of the probe was analyzed for wavelengths 300-500 nm with emission read at 545 nm.
# (§6) 3 μM of each probe was applied to serial two fold dilutions of the insoluble carbohydrate. Respective probes were excited at wavelengths unique to each probe (specified in figure), and emission was read at 545 nm.
# as §3, §4
# [4] = for RFU change (Correlation analysis) / RFU change (Signal deviation with increasing [Carbohydrate]): 3 μM probe; for RFU change (Correlation analysis): probe-specific excitation λ, emission 545 nm; for RFU change (Signal deviation with increasing [Carbohydrate]): spectral analysis, Excitation 300-500, Emission 545; for Gradient Parameters (gradient of regression line) / Linear relationship / Quality of Gradient: linear regression
# Protocol: (§7) 3 μM of each probe was applied to serial two fold dilutions of the carbohydrate of which the concentration shown here are 5 mg/ml (_.), 2.5 mg/ml (. . . ), 1.25 mg/ml (__) and 0 mg/ml (_). The excitation spectrum of the probe was analyzed for wavelengths 300-500 nm with emission read at 545 nm.
# as §2, §3, §4
# [5] = remark: listed apart in the source
# Protocol: as §7, with “of the insoluble carbohydrate of” for “of the carbohydrate of”
# as §6, §3, §4
# [6] = remark: listed apart in the source
# Protocol: as §5, §2, §3, §4
# [7] = Cellulobiose 5-0.019 mg/ml, 3 μM probe, spectral analysis, Excitation 300-500, Emission 545
# [8] = amylose concentration vs RFU, linear regression
# [9] = glucose concentration vs RFU, linear regression
# [10] = β-1,3-glucan concentration vs RFU
# [11] = sodium alginate concentration vs RFU, linear regression
# [12] = Chondroitin Sulfate A 5-0.019 mg/ml, 3 μM probe, spectral analysis, Excitation 300-500, Emission 545
# [13] = Chondroitin Sulfate A concentration vs RFU, linear regression
smiles,measurement,setting,value
"NCCCC[C@H](NC(=O)Cc1cc(-c2cccs2)sc1-c1ccc(-c2sc(-c3cccs3)cc2CC(=O)N[C@@H](CCCCN)C(=O)[O-])s1)C(=O)[O-].[Na+].[Na+] [pHTA-Lys, penta Hydrogen Thiophene Acetic acid Lysine]",RFU change (Correlation analysis),"[1]; Amylose 5-0.019 mg/ml, 3 μM probe",Increases
same,RFU change (Signal deviation with increasing [Carbohydrate]),"[1]; Amylose 5-0.019 mg/ml, 3 μM probe, spectral analysis, Excitation 300-500, Emission 545",Increases
same,carbohydrate can be detected and/or differentiated by the LCO,"[1]; Amylose, conclusion from change in signal magnitude and/or shift in λmax",can be detected and/or differentiated
same,RFU change (Correlation analysis),"[1]; Cellulobiose 5-0.019 mg/ml, 3 μM probe",Unclear
same,RFU change (Signal deviation with increasing [Carbohydrate]),[1]; [7],Unclear
same,λmax change,[1]; [7],No change
same,Gradient Parameters (gradient of regression line),[1]; [8],47.7 ± 18.5
same,Linear relationship,[1]; [8],Significant
same,Quality of Gradient,[1]; [8],Positive
same,Quality of Gradient,"[1]; cellulobiose concentration vs RFU, linear regression",Horizontal
same,Sensitivity,[1]; to amylose,Yes
same,Sensitivity,[1]; to cellulobiose,No
same,RFU change (Correlation analysis),"[2]; Glucose 5-0.019 mg/ml, 3 μM probe, probe-specific excitation λ, emission 545 nm",Unclear
same,RFU change (Signal deviation with increasing [Carbohydrate]),"[2]; Glucose 5-0.019 mg/ml, 3 μM probe, spectral analysis, Excitation 300-500, Emission 545",Unclear
same,Gradient Parameters (gradient of regression line),[2]; [9],23.6 ± 13.7
same,Quality of Gradient,[2]; [9],Horizontal
same,Sensitivity,[2]; to glucose,No
same,RFU change (Correlation analysis),[3]; Cellulose 10-[…],Increase
same,RFU change (Signal deviation with increasing [Carbohydrate]),[3]; Cellulose 10-[…],Increase
same,λmax change,[3]; Cellulose 10-[…],Redshift
same,carbohydrate can be detected and/or differentiated by the LCO,[3]; Cellulose,can be detected and/or differentiated
same,RFU change (Correlation analysis),[3]; Chitin 10-[…],Increases
same,RFU change (Signal deviation with increasing [Carbohydrate]),[3]; Chitin 10-[…],Increases
same,λmax change,[3]; Chitin 10-[…],Redshift
same,carbohydrate can be detected and/or differentiated by the LCO,[3]; Chitin,can be detected and/or differentiated
same,Gradient Parameters (gradient of regression line),[3]; cellulose concentration vs RFU,291.8 ± 46.6
same,Linear relationship,[3]; cellulose concentration vs RFU,Significant
same,Quality of Gradient,[3]; cellulose concentration vs RFU,Positive
same,Gradient Parameters (gradient of regression line),[3]; chitin concentration vs RFU,273.8 ± 46.2
same,Linear relationship,[3]; chitin concentration vs RFU,Significant
same,Quality of Gradient,[3]; chitin concentration vs RFU,Positive
same,Sensitivity,[3]; to cellulose,Yes
same,Sensitivity,[3]; to chitin,Yes
same,Sensitivity,"[3]; to β-1,3-glucan",Yes
same,carbohydrate can be detected and/or differentiated by the LCO,"[3]; β-1,3-Glucan",can be detected and/or differentiated
same,RFU change (Correlation analysis),"[3]; β-1,3-glucan 10-[…]",Increase
same,RFU change (Signal deviation with increasing [Carbohydrate]),"[3]; β-1,3-glucan 10-[…]",Decrease
same,Gradient Parameters (gradient of regression line),[3]; [10],107.9 ± 16.4
same,Quality of Gradient,[3]; [10],Positive
same,RFU change (Correlation analysis),[4]; Glycogen 5-0.019 mg/ml,Increases
same,RFU change (Signal deviation with increasing [Carbohydrate]),[4]; Glycogen 5-0.019 mg/ml,Increases
same,carbohydrate can be detected and/or differentiated by the LCO,"[4]; Glycogen, conclusion from change in signal magnitude and/or shift in λmax",can be detected and/or differentiated
same,RFU change (Correlation analysis),[4]; Heparin 5-0.019 mg/ml,Increases
same,RFU change (Signal deviation with increasing [Carbohydrate]),[4]; Heparin 5-0.019 mg/ml,Increases
same,Gradient Parameters (gradient of regression line),[4]; glycogen concentration vs RFU,43.6 ± 7.9
same,Linear relationship,[4]; glycogen concentration vs RFU,Significant
same,Quality of Gradient,[4]; glycogen concentration vs RFU,Positive
same,Gradient Parameters (gradient of regression line),[4]; heparin concentration vs RFU,48.4 ± 18.2
same,Linear relationship,[4]; heparin concentration vs RFU,Significant
same,Quality of Gradient,[4]; heparin concentration vs RFU,Positive
same,Sensitivity,[4]; to glycogen,Yes
same,Sensitivity,[4]; to heparin,Yes
same,RFU change (Correlation analysis),"[5]; Sodium alginate 5-0.019 mg/ml, 3 μM probe, probe-specific excitation λ, emission 545 nm",Increases
same,RFU change (Signal deviation with increasing [Carbohydrate]),"[5]; Sodium alginate 5-0.019 mg/ml, 3 μM probe, spectral analysis, Excitation 300-500, Emission 545",Increases
same,carbohydrate can be detected and/or differentiated by the LCO,"[5]; Sodium alginate, conclusion from change in signal magnitude and/or shift in λmax",can be detected and/or differentiated
same,Gradient Parameters (gradient of regression line),[5]; [11],55.4 ± 5.3
same,Linear relationship,[5]; [11],Significant
same,Quality of Gradient,[5]; [11],Positive
same,Sensitivity,[5]; to sodium alginate,Yes
same,RFU change (Correlation analysis),"[6]; Chondroitin Sulfate A 5-0.019 mg/ml, 3 μM probe, probe-specific excitation λ, emission 545 nm",Increases
same,RFU change (Signal deviation with increasing [Carbohydrate]),[6]; [12],Decreases
same,λmax change,[6]; [12],No change
same,Gradient Parameters (gradient of regression line),[6]; [13],194.8 ± 19.2
same,Linear relationship,[6]; [13],Significant
same,Quality of Gradient,[6]; [13],Positive
same,carbohydrate can be detected and/or differentiated by the LCO,"[6]; Chondroitin sulfate A, conclusion from change in signal magnitude and/or shift in λmax",can be detected and/or differentiated
same,Sensitivity,[6]; to Chondroitin Sulfate A,Yes
